This data set in a line: solvent given as SMILES.

On to `CC[N+](CC)=c1ccc2c(-c3ccccc3C(=O)O)c3cc4c(-c5ccccc5C(=O)O)c5ccc(=[N+](CC)CC)cc-5oc4cc3oc-2c1`, for which the absorption maximum (in ClC(Cl)Cl) worked out at 598 nm.
As to `CCOC(=O)c1cc(C)n2nc(-c3ccccc3)ccc12`, the absorption maximum (in C1CCCCC1) was determined as 390 nm.
`Clc1ccc(N2c3sc4ccccc4c3Sc3sc4ccccc4c32)cc1`: the absorption maximum (in ClCCl) stood at 310 nm.
With `O=C(c1ccc(N(c2ccccc2)c2ccccc2)cc1)[C@H]1[C@H](c2cccs2)C[C@](O)(c2ccccn2)C[C@]1(O)c1ccccn1`, the absorption maximum came to 370 nm (in C1CCOC1); 364 nm (in CC#N); 368 nm (in CCO); 366 nm (in CCOC(C)=O); 358 nm (in CN(C)C=O); 374 nm (in ClCCl). Besides, the absorption maximum (in c1ccccc1) was found to be 372 nm.
For `O=P1(c2ccccc2)c2ccccc2-n2cccc21` (stereo unspecified), the absorption maximum (in ClCCl) is recorded as 290 nm.
Turning to `Cn1c(=O)c(/N=N/c2cc(S(=O)(=O)O)ccc2S(=O)(=O)O)c(O)c2ccccc21`, the absorption maximum is, setting by setting: (in C1CCOC1) 428 nm; (in CC(C)=O) 421 nm; (in CCOC(C)=O) 423 nm; (in CO) 422 nm; (in CS(C)=O) 419 nm; (in Cc1ccccc1) 430 nm. For the same compound, the absorption maximum is, setting by setting: (in ClCCl) 415 nm; (in O) 413 nm.
As for `COC(=O)c1cc(=O)n(C)c2cc(-c3ccccc3)sc12`, the absorption maximum (in CC#N) is 392 nm and the absorption maximum (in ClCCl) is on record as 394 nm.
`COc1ccc(N(c2ccc(OC)cc2)c2ccc(-c3ccc(-c4ccc5nc6ccccc6c(=O)n5c4)cc3)cc2)cc1` yielded an absorption maximum (in ClCCl) of 367 nm.
On to `CCCCCCc1ccc(-c2ccc(-c3cc(-c4ccc(-c5ccc(CCCCCC)s5)s4)c4ccc5c(-c6ccc(-c7ccc(CCCCCC)s7)s6)cc(-c6ccc(-c7ccc(CCCCCC)s7)s6)c6ccc3c4c65)s2)s1`, for which, where the note is “in ClC(Cl)Cl”, the absorption maximum stood at 451 nm.
Take `O=C1c2ccccc2-c2c(-c3cc(Cl)ccc3O)[nH]c(=O)n21`: the absorption maximum was found to be 390 nm (in CC#N), 393 nm (in CO) and 395 nm (in ClCCl).
Compound `C(#Cc1ccc2ncsc2c1)c1ccc(N(c2ccc(C#Cc3ccc4ncsc4c3)cc2)c2ccc(C#Cc3ccc4ncsc4c3)cc2)cc1` came in with an absorption maximum (in Cc1ccccc1) of 380 nm.
For `Cc1ccc(/C=C/C(F)(F)F)c(N)c1`, for the setting “in C1CCOC1”, the absorption maximum is 346 nm.
On the same count and under the same terms, to `CC1=C[C@]2(C)C(=C3C(=C4C(C)=C(c5ccc(-c6nc(-c7ccccc7)c(-c7ccccc7)[nH]6)cc5)S[C@]42C)C(F)(F)C(F)(F)C3(F)F)S1` belongs 505 nm.
With `COc1ccc(NC(=O)C(C(=O)Nc2ccc(OC)cc2)C(c2ccccc2O)c2c(C)[nH]c3ccccc23)cc1` (stereo unspecified), the absorption maximum runs as follows: (in CO) 258 nm; (in CS(C)=O) 266 nm.
As to `O=Cc1ccc(-c2ccc(C3=CCCCC3)s2)s1`, the absorption maximum reads like this: (in C1CCOC1) 385 nm; (in CC#N) 358 nm; (in CCCCCC) 381 nm; (in CCO) 389 nm; (in OCCOCCO) 389 nm; (in c1ccncc1) 392 nm.
For `CCOc1cc2c(cc1/C=C/C1=CC(=C(C#N)C#N)CC(C)(C)C1)c1ccccc1n2CC`, the absorption maximum turned out to be 476 nm (in C1CCOC1); 474 nm (in CC#N); 480 nm (in CCO); 469 nm (in CCOC(C)=O); 487 nm (in CN(C)C=O); 491 nm (in CS(C)=O). The compound also displayed an absorption maximum (in Cc1ccccc1) of 474 nm, an absorption maximum (in ClC(Cl)Cl) of 480 nm and an absorption maximum (in ClCCl) of 479 nm.
Turning to `Cc1cccc(NC(=O)c2ccc(N(C)C)cc2)c1`, the absorption maximum runs as follows: (in C1CCCCC1) 306 nm; (in C1CCOC1) 311 nm; (in CC#N) 314 nm; (in CCOCC) 306 nm.
Under “in ClCCl”, `O=c1c2ccccc2nc2ccc(-c3ccc(-c4ccc(N(c5ccccc5)c5ccccc5)cc4)cc3)cn12` showed an absorption maximum of 362 nm.
For the compound `O=S(=O)(/N=c1\oc2cccc3c4c(-c5ccccc5)oc5cccc(c(c1-c1ccccc1)c23)c54)C(F)(F)F`, the absorption maximum reads like this: (in CCCCCC) 458 nm; (in CO) 456 nm; (in CS(C)=O) 463 nm; (in ClC(Cl)Cl) 460 nm; (in ClCCl) 463 nm.
With `N#Cc1cccc2cc[nH]c12`, the absorption maximum stood at 307.36 nm (in C1COCCO1), 309.69 nm (in CC#N) and 308 nm (in O).
Turning to `CCCCCCn1c2cc(C=C(C#N)C#N)sc2c2sc3c(sc4c5sc(C=C(C#N)C#N)cc5n(CCCCCC)c43)c21`, the absorption maximum (in ClCCl) is 588 nm.
Take `CC1(C)c2ccccc2N(c2ccc(-c3nc(-c4ccccn4)n(-c4ccc(N5c6ccccc6C(C)(C)c6ccccc65)cc4)n3)cc2)c2ccccc21`: the absorption maximum (in ClCCl) was determined as 375 nm.
Turning to `COc1ccc(C2=Cc3ccc4ccccc4[n+]3[B-](F)(F)O2)cc1`, the absorption maximum (in ClC(Cl)Cl) amounted to 439 nm.
Regarding `O=C(O)CCCCCn1c2ccccc2c(=O)c2cc(Br)ccc21`, the absorption maximum (in O) amounted to 439 nm.
Turning to `C[C@]12SC(=O)C=C1c1nc(-c3ccccc3O)[nH]c1C1=CC(=O)S[C@@]12C`, the absorption maximum (in CC#N) was determined as 455 nm.
`c1ccc(-c2ccc3c(c2)c2cc(-c4ccccc4)ccc2n3-c2ccc3c(c2)c2cc(-n4c5ccc(-c6ccccc6)cc5c5cc(-c6ccccc6)ccc54)ccc2n3-c2ccc(-c3nc(-c4ccccc4)nc(-c4ccccc4)n3)cc2)cc1`: the absorption maximum (in Cc1ccccc1) is on record as 362 nm.
Compound `CCOC(=O)COc1ccc(/C=C/C2=C3c4ccccc4C(c4[nH]c(C)cc4C)=[N+]3[B-](F)(F)n3c(C)cc(C)c32)cc1` had an absorption maximum (in C1CCOC1) of 608 nm; an absorption maximum (in CC#N) of 602 nm; an absorption maximum (in CCCCCC) of 608 nm; an absorption maximum (in CO) of 603 nm; an absorption maximum (in Cc1ccccc1) of 614 nm; an absorption maximum (in ClCCl) of 608 nm.
With `COc1ccc(C#Cc2ccc(C#Cc3ccc(C#Cc4ccccc4C#N)cc3C#N)cc2C#N)cc1`, the absorption maximum is, setting by setting: (in C1CCOC1) 369 nm; (in CC#N) 364 nm; (in CN(C)C=O) 369 nm; (in ClC(Cl)Cl) 371 nm; (in c1ccccc1) 371 nm.
As to `O=C(N/N=C/c1ccccc1O)c1cccc2ccccc12`, the absorption maximum runs as follows: (in C1CCOC1) 334 nm; (in CC#N) 332 nm; (in CC(C)=O) 343 nm; (in CCO) 400 nm; (in CN(C)C=O) 395 nm; (in CS(C)=O) 329 nm. Also, the absorption maximum (in ClCCl) was found to be 328 nm.
For `CN(C)c1ccc(C2=CC3=C(c4ccc([N+](=O)[O-])cc4)[C@H]4c5ccccc5[C@]3(S2)c2ccccc24)cc1`, the absorption maximum (in ClCCl) was found to be 484 nm.
On the same count and under the same terms, to `c1ccc(B2Nc3cc4c(cc3-c3sccc32)NB(c2ccccc2)c2ccsc2-4)cc1` belongs 405 nm.
The same measure, in the same setting: with `CCCCn1c2ccc(-c3ccc4c(c3)c3c5c(ccc6ccc7ccccc7c65)ccc3n4CCCC)cc2c2c3c(ccc4ccc5ccccc5c43)ccc21` the figure was 336 nm.
